# According to US9376694B2, “Method for preparing optically active amino acid using cosubstrate shuttling of transaminase” (INDUSTRY-ACADEMIC COOPERATION FOUNDATION, YONSEI UNIVERSITY, priority 2012, dated 2016):
# Several values for one entry are separate records, joined by “and”; a condition that tells them apart may be missing. Equal values may be shown once.
# Tests used:
# [1] = biological target: T1, branched-chain transaminase (Escherichia coli, UniProt P0AB80); test: Substrate specificity of purified branched-chain transaminase for keto acids; type: biochemical, E. coli; conditions: for Concentration of 2-oxobutyrate: purified enzyme (1 U/mL), 20 mM L-homoalanine, 20 mM keto acid, pH 7.0, 37° C., 7 hours
# T1 construct: made in house; host or cells: E. coli BL21(DE3)
# Description: Reaction was conducted using the branched-chain transaminase purified in Example 3 and using various L-amino acids and keto acids described in [Table 3] as substrates. After adding 10 μL of the purified enzyme (1 U/mL) to 100 μL of a mixture of 20 mM L-homoalanine, 20 mM keto acid and 50 mM potassium phosphate (pH 7.0), reaction was conducted at 37° C. for 7 hours and the amount of produced 2-oxobutyrate (keto acid of L-homoalanine) was measured. The result is shown in [Table 3].
# When trimethylpyruvate and L-homoalanine were used as substrates, the equilibrium constant of the reaction by the branched-chain transaminase was very low at 0.16.
# [2] = system: ω-transaminase derived from Ochrobactrum anthropi; test: Substrate specificity of purified ω-transaminase for keto acids, OawTA; type: biochemical; conditions: 20 mM keto acid, 20 mM (S)-α-methylbenzylamine, pH 7.0, 37° C., 6 hours
# Description: (§1) Reaction was conducted using the ω-transaminase purified in Example 3 and using various keto acids and amine as substrates as described in [Table 6]. After adding 10 μL of the purified enzyme (6 U/mL) to 100 μL of a mixture of 20 mM keto acid, 20 mM (S)-α-methylbenzylamine and 50 mM potassium phosphate (pH 7.0), reaction was conducted at 37° C. for 6 hours and the amount of produced acetophenone (deaminated ketone of (S)-α-methylbenzylamine) was measured. The result was compared with that of the ω-transaminase derived from Ochrobactrum anthropi. The result is shown in [Table 6].
# [3] = system: ω-transaminase derived from Paracoccus denitrificans (PdwTA); test: Substrate specificity of purified ω-transaminase for keto acids in initial stage of reaction, PdwTA; type: biochemical; parameters: unit not given here; conditions: purified enzyme (1 U/mL); 20 mM keto acid, 20 mM (S)-α-methylbenzylamine, pH 7.0, 37° C., 10 minutes
# Description: (§2) Reaction was conducted using the ω-transaminase purified in Example 3 and using various keto acids and amine as substrates as described in [Table 7]. After adding 10 μL of the purified enzyme (1 U/mL) to 100 μL of a mixture of 20 mM keto acid, 20 mM (S)-α-methylbenzylamine and 50 mM potassium phosphate (pH 7.0), reaction was conducted at 37° C. for 10 minutes and the amount of produced acetophenone (deaminated ketone of (S)-α-methylbenzylamine) was measured. The result was compared with that of the ω-transaminase derived from Ochrobactrum anthropi. The result is shown in [Table 7].
# [4] = system: ω-transaminase derived from Ochrobactrum anthropi; test: Substrate specificity of purified ω-transaminase for keto acids in initial stage of reaction, OawTA; type: biochemical; parameters: unit not given here; conditions: 20 mM keto acid, 20 mM (S)-α-methylbenzylamine, pH 7.0, 37° C., 10 minutes
# Description: as §2
# [5] = system: ω-transaminase derived from Paracoccus denitrificans (PdwTA); test: Substrate specificity of purified ω-transaminase for keto acids, PdwTA; type: biochemical; conditions: purified enzyme (6 U/mL); 20 mM keto acid, 20 mM (S)-α-methylbenzylamine, pH 7.0, 37° C., 6 hours
# Description: as §1
# [6] = system: ω-transaminase derived from Paracoccus denitrificans (PdwTA); test: Substrate specificity of purified ω-transaminase for amino acids (glyoxylate acceptor), PdwTA; type: biochemical; conditions: purified enzyme (5 U/mL); 20 mM glyoxylate, 20 mM L-amino acid, pH 7.0, 37° C., 6 hours; reaction conducted 3 times
# Description: (§3) Reaction was conducted using the ω-transaminase purified in Example 3 and using various L-amino acids and […] as substrates as described in [Table 5]. After adding 10 μL of the purified enzyme (5 U/mL) to 100 μL of a mixture of 20 mM glyoxylate, 20 mM L-amino acid and 50 mM potassium phosphate (pH 7.0), reaction was conducted at 37° C. for 6 hours and the amount of produced L-glycine was measured. The reaction was conducted 3 times and the result was compared with that of the ω-transaminase derived from Ochrobactrum anthropi. The result is shown in [Table 5].
# [7] = biological target: T1, branched-chain transaminase; test: Substrate specificity of purified branched-chain transaminase for amino acids with trimethylpyruvate; type: biochemical, E. coli; conditions: purified enzyme (6 U/mL); 20 mM trimethylpyruvate, 20 mM L-amino acid, pH 7.0, 37° C., 6 hours
# Description: Reaction was conducted using the branched-chain transaminase purified in Example 3 and using various L-amino acids and trimethylpyruvate as substrates as described in [Table 4]. After adding 10 μL of the purified enzyme (6 U/mL) to 100 μL of a mixture of 20 mM trimethylpyruvate, 20 mM L-amino acid and 50 mM potassium phosphate (pH 7.0), reaction was conducted at 37° C. for 6 hours and the amount of produced L-tert-leucine was measured. The result is shown in [Table 4].
# [8] = biological target: T1, branched-chain transaminase; test: Substrate specificity of branched-chain transaminase for amino acids with trimethylpyruvate, crude extract; type: biochemical, E. coli; conditions: 20 mM trimethylpyruvate, 20 mM L-amino acid, pH 7.0, 37° C., 2 hours
# Description: Reaction was conducted using the crude extract containing the branched-chain transaminase obtained in Example 3 and using various trimethylpyruvate (keto acid of L-tert-leucine) as substrates. After adding 100 μL of the crude extract to 200 μL of a mixture of 20 mM trimethylpyruvate, 20 mM L-amino acid and 50 mM potassium phosphate (pH 7.0), reaction was conducted at 37° C. for 2 hours and the amount of produced L-tert-leucine was measured. The result is shown in [Table 2].
# [9] = system: ω-transaminase derived from Ochrobactrum anthropi; test: Substrate specificity of purified ω-transaminase for amino acids (glyoxylate acceptor), OawTA; type: biochemical; conditions: 20 mM glyoxylate, 20 mM L-amino acid, pH 7.0, 37° C., 6 hours
# Description: as §3
# [10] = biological target: T1, branched-chain transaminase; test: Substrate specificity of branched-chain transaminase for amino acids, enzyme-containing crude extract; type: biochemical, E. coli; conditions: 20 mM L-amino acid, pH 7.0, 37° C., 30 minutes
# Description: Reaction was conducted using the crude extract containing the branched-chain transaminase obtained in Example 3 and using various L-amino acids and keto acids described in [Table 1] as substrates. After adding 20 μL of the crude extract to 200 μL of a mixture of 20 mM L-amino acid, 20 mM keto acid and 50 mM potassium phosphate (pH 7.0), reaction was conducted at 37° C. for 30 minutes and the amount of produced L-amino acid was measured. The result is shown in [Table 1].
# [11] = 20 mM α-ketoglutarate as keto acid
# T1 sequence (P0AB80 whole entry): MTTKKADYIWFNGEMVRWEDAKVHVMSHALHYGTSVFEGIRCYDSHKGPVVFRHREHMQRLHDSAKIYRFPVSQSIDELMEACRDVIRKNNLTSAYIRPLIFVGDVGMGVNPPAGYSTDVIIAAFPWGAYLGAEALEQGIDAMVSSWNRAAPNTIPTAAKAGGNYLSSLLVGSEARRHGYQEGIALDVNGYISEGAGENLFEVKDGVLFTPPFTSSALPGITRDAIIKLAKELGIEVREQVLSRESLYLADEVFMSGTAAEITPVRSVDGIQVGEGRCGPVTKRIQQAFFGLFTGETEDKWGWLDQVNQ
SMILES,"amount of produced acetophenone, PdwTA [3]","amount of produced acetophenone, OawTA [4]","Concentration of L-glycine, PdwTA [6]",Concentration of L-tert-leucine [7],"Concentration of L-glycine, OawTA [9] [mM]",also measured
O=C(O)C(=O)C12CC3CC(CC(O)(C3)C1)C2 [2-(3-Hydroxy-1-adamantyl)-2-oxoethanoic acid],–,–,–,–,–,Concentration of 2-oxobutyrate [1]: 5.47 mM
CCC(=O)C(=O)O [2-Oxobutyrate],0.821,0.173,–,–,–,"Concentration of acetophenone, OawTA [2]: 5.05 mM; Concentration of acetophenone, PdwTA [5]: 5.03 mM"
CCCCC(=O)C(=O)O [2-Oxohexanoic acid],0.713,0.006,–,–,–,"Concentration of acetophenone, OawTA [2]: 3.07 mM; Concentration of acetophenone, PdwTA [5]: 5.22 mM"
CCCC(=O)C(=O)O [2-Oxopentanoic acid],1.332,0.378,–,–,–,"Concentration of acetophenone, OawTA [2]: 3.45 mM; Concentration of acetophenone, PdwTA [5]: 5.24 mM"
CC(C)C(=O)C(=O)O [3-Methyl-2-oxobutyrate],–,–,–,–,–,"Concentration of acetophenone, OawTA [2]: 0.00 mM; Concentration of acetophenone, PdwTA [5]: 0.00 mM; Concentration of 2-oxobutyrate [1]: 11.93 mM"
CCC(C)C(=O)C(=O)O (centres unmarked) [3-Methyl-2-oxoxpentanoic acid],–,–,–,–,–,"Concentration of acetophenone, OawTA [2]: 0.00 mM; Concentration of acetophenone, PdwTA [5]: 0.00 mM; Concentration of 2-oxobutyrate [1]: 8.49 mM"
CC(C)CC(=O)C(=O)O [4-Methyl-2-oxopentanoic acid],0.175,0.005,–,–,–,"Concentration of acetophenone, OawTA [2]: 0.03 mM; Concentration of acetophenone, PdwTA [5]: 4.99 mM; Concentration of 2-oxobutyrate [1]: 7.27 mM"
O=C(O)C(=O)CF [Fluoropyruvate],0.339,0.554,–,–,–,–
O=CC(=O)O [Gyloxylate],1.076,1.733,–,–,–,–
C[C@H](N)C(=O)O [L-Alanine],–,–,13.92 mM and 13.31 mM and 11.61 mM,2.24 mM and 2.07 mM and 2.23 mM,11.73,Production amount of L-tert-leucine [8]: 0.8 mM
N[C@@H](CCC(=O)O)C(=O)O [L-Glutamate],–,–,–,–,–,Production amount of L-amino acid ([10]; 20 mM 2-oxobutyrate as keto acid): 4.2 mM; Production amount of L-tert-leucine [8]: 6.4 mM
CC[C@H](N)C(=O)O [L-Homoalanine],–,–,12.56 mM and 13.31 mM and 11.26 mM,5.57 mM and 4.43 mM and 5.71 mM,4.97,"Production amount of L-amino acid [10, 11]: 0.1 mM; Production amount of L-tert-leucine [8]: 7.2 mM"
CC[C@H](C)[C@H](N)C(=O)O [L-Isoleucine],–,–,0.00 mM,7.79 mM and 7.48 mM and 6.51 mM,0.00,"Production amount of L-amino acid [10, 11]: 2.6 mM; Production amount of L-tert-leucine [8]: 9.2 mM"
CC(C)C[C@H](N)C(=O)O [L-Leucine],–,–,7.93 mM and 7.95 mM and 5.71 mM,6.71 mM and 6.32 mM and 7.06 mM,0.00,–
CCCC[C@H](N)C(=O)O [L-Norleucine],–,–,13.41 mM and 12.97 mM and 12.59 mM,5.90 mM and 5.48 mM and 5.55 mM,0.28,–
CCC[C@H](N)C(=O)O [L-Norvaline],–,–,13.43 mM and 14.29 mM and 14.12 mM,6.31 mM and 5.34 mM and 6.06 mM,0.36,–
CC(C)[C@H](N)C(=O)O [L-Valine],–,–,0.18 mM and 0.20 mM and 0.17 mM,6.31 mM and 5.04 mM and 6.23 mM,0.00,"Production amount of L-amino acid [10, 11]: 1.6 mM; Production amount of L-tert-leucine [8]: 7.8 mM"
CC(C)(C)[C@H](N)C(=O)O [L-tert-Leucine],–,–,–,–,–,"Production amount of L-amino acid [10, 11]: 0.06 mM"
O=C(O)C(=O)CS [Mercaptopyruvate],0.008,0.012,–,–,–,–
CC(C)(C)C(=O)C(=O)O [Trimethylpyruvate],–,–,–,–,–,Concentration of 2-oxobutyrate [1]: 5.83 mM; equilibrium constant of the reaction by the branched-chain transaminase ([1]; trimethylpyruvate and L-homoalanine as substrates): 0.16
O=C(O)C(=O)CO [β-Hydroxypyruvate],0.066,0.183,–,–,–,–
